The source of these data is patent publication US8088788B2, “Substituted fused[1,2] imidazo[4,5-c] ring compounds and methods” (3M Innovative Properties Company, priority 2006, dated 2012).

Bounds are passed on as bounds.

`Nc1nc2ccccc2c2c1nc1n2CCCN1` [Example 5, 8,9,10,11-Tetrahydropyrimido[1′,2′:1,2]imidazo[4,5-c]quinolin-6-amine] yielded a melting point of over 250 °C.

On to `Cc1ccc(S(=O)(=O)n2ccc3nc4c(N)nc5ccccc5c4n32)cc1` [Example 25, 10-[(4-Methylphenyl)sulfonyl]-10H-pyrazolo[1′,5′:1,2]imidazo[4,5-c]quinolin-6-amine], for which the melting point fell in the range of 204 to 206 °C.

`C[C@H]1CNc2nc3c(N)nc4ccccc4c3n21` [Example 27, (10S)-10-Methyl-9,10-dihydro-8H-imidazo[1′,2′:1,2]imidazo[4,5-c]quinolin-6-amine]: the melting point fell in the range of 265 to 273 °C.

Take `C[C@@H]1CNc2nc3c(N)nc4ccccc4c3n21` [Example 28, (10R)-10-Methyl-9,10-dihydro-8H-imidazo[1′,2′:1,2]imidazo[4,5-c]quinolin-6-amine]: the melting point is 272 to 274 °C.

`Nc1nc2cc(Br)ccc2c2c1nc1n2CCCO1` [Example 7, 3-Bromo-10,11-dihydro-9H-[1,3]oxazino[3′,2′:1,2]imidazo[4,5-c]quinolin-6-amine] registered a melting point of 273 to 276 °C.

Compound `CC1CCc2nc3c(N)nc4ccccc4c3n2N1` (stereo not drawn) [Example 24, 10-Methyl-8,9,10,11-tetrahydropyridazino[1′,6′:1,2]imidazo[4,5-c]quinolin-6-amine] yielded a melting point of 241 to 243 °C.

What is called melting point is the temperature of the solid-liquid transition.
